Data as given in patent publication US9926375B2, “Anti-endoglin antibodies and uses thereof” (Tracon Pharmaceuticals, Inc., priority 2014, dated 2018).
Changes are numbered by the printed parent chain.

Experiments:
[1] = test system: NASH mice; assay: Murine model of non-alcoholic steatohepatitis (NASH; STZ and high fat diet); format: in vivo, mouse
Description: The purpose of this study was to examine the protective effects of endoglin antibodies on a murine model of NASH.
NASH was established by a single subcutaneous injection of STZ (Sigma, USA) after birth and feeding with a high fat diet (HFD; CLEA Japan, Japan) ad libitum after 4 weeks of age (day 28±2).
Randomization of mice into 6 groups of 10 mice was done at 9 weeks of age (day 63±2), the day before the start of treatment.
Group 3 (Positive control; Temlisartan Group): Ten NASH mice were be orally administered pure water supplemented with telmisartan at a dose of 10 mg/kg once daily from day 63 to 84.
Group 4 (Antibody M1043: M1043 Group): Ten NASH mice were intravenously administered vehicle supplemented with Antibody M1043 at a dose of 10 mg/kg twice weekly at day 63, 66, 70, 73, 77 and 80.
Group 5 (Antibody TRC105; TRC105 Group): Ten NASH mice were intravenously administered vehicle supplemented with Antibody TRC105 at a dose of 10 mg/kg twice weekly at day 63, 66, 70, 73, 77 and 80.
Group 6 (Antibody TRC205; TRC205 Group): Ten NASH mice were intravenously administered vehicle supplemented with Antibody TRC205 at a dose of 10 mg/kg twice weekly at days 63, 66, 70, 73, 77 and 80.
Mice in all groups were terminated for the following assays at 12 weeks of age.
H&E staining of liver tissue was conducted to estimate NAFLD Activity score.
Total NAS score represents the sum of scores for steatosis, lobular inflammation, and ballooning, and ranges from 0-8. Diagnosis of NASH (or, alternatively, fatty liver not diagnostic of NASH) should be made first, then NAS is used to grade activity. In the reference study, NAS scores of 0-2 occurred in cases largely considered not diagnostic of NASH, scores of 3-4 were evenly divided among those considered not diagnostic, borderline, or positive for NASH. Scores of 5-8 occurred in cases that were largely considered diagnostic of NASH.
Statistical tests were performed using Bonferroni Multiple Comparison Test. P values<0.05 were considered statistically significant.

[2] = test system: peripheral blood mononuclear cells (PBMCs); assay: EpiScreen time course T cell proliferation assay with intact anti-endoglin antibodies; format: cell-based, human; settings: for Donors with positive T cell proliferation responses: of 20 donors, SI≥2 (borderline ≥1.90), p<0.05
Description: This example describes a method of screening anti-endoglin antibodies for T-cell epitopes. The interaction between MHC, polypeptide and T cell receptor (TCR) provides the structural basis for the antigen specificity of T cell recognition. T cell proliferation assays test the binding of polypeptides processed from antibodies to MHC and the recognition of MHC/polypeptide complexes by the TCR. In vitro T cell proliferation assays of the present example, involve the stimulation of peripheral blood mononuclear cells (PBMCs), containing antigen presenting cells (APCs) and T cells. Stimulation is conducted in vitro using intact anti-endoglin antibodies. Stimulated T cell proliferation is measured using ^3H-thymidine (^3H-Thy) and the presence of incorporated ^3H-Thymidine is assessed using scintillation counting of washed fixed cells.
Anti-endoglin antibodies were purified from the supernatants of mammalian cultures by protein A chromatography. Buffer exchange and protein concentration was done using PBS pH=7.4. Anti-endoglin antibody was further purified by size exclusion chromatography using a Sephacryl S200 column (GE Healthcare, AMersham, UK). The major peak is collected, filter sterilized and shown to have endotoxin levels <5 EU/mg using an Endosafe-PTS (Charles River, Margate, UK). The purified antibodies are stored at 4 degrees Celsius. Final concentrations were determined by UV absorption using calculated molar extinction coefficients, where A280 1.0=1.62 mg/mL. Each antibody was then diluted to 100 μg/mL in AIMV culture medium.
Peripheral Blood Mononuclear cells (PBMC) are isolated from healthy community donor buffy coats (from blood drawn within 24 hours) which are obtained from the UK National Blood Transfusion Service (Addenbrooke's Hospital, Cambridge, UK) according to approval granted by Addenbrooke's Hospital Local Research Ethics Committee. PBMC are isolated from buffy coats by Lymphoprep (Axis-shield, Dundee, Scotland) density centrifugation and CD8+ T cells are depleted using CD8+ RossetteSep™ (StemCell Technologies, Inc.). Donors are characterized by identifying HLA-DR haplotypes using a Biotest HLA SSP-PCR based tissue-typing kit (Biotest, Landsteinerstralβe, […]). T cell responses to a control antigen, Keyhole Limpet Haemocyanin (KLH) (Pierce, Rockford, Ill., USA) are determined for a positive control. PBMC were then frozen and stored in liquid nitrogen until required. When required for use, cells are thawed rapidly in a water bath at 37° C. before transferring to 10 ml pre-warmed AIM V medium.
A cohort of 20 donors is selected to best represent the number and frequency of HLA-DR allotypes expressed in the world population. […]
PBMCs from each donor are thawed, counted and viability assessed. […]

[3] = target: T1, human endoglin (Homo sapiens, UniProt P17813); assay: BIAcore (surface plasmon resonance) analysis of anti-endoglin antibody binding; settings: antibody captured on protein A chip, 25 degrees Celsius
T1 sequence (P17813 26-658): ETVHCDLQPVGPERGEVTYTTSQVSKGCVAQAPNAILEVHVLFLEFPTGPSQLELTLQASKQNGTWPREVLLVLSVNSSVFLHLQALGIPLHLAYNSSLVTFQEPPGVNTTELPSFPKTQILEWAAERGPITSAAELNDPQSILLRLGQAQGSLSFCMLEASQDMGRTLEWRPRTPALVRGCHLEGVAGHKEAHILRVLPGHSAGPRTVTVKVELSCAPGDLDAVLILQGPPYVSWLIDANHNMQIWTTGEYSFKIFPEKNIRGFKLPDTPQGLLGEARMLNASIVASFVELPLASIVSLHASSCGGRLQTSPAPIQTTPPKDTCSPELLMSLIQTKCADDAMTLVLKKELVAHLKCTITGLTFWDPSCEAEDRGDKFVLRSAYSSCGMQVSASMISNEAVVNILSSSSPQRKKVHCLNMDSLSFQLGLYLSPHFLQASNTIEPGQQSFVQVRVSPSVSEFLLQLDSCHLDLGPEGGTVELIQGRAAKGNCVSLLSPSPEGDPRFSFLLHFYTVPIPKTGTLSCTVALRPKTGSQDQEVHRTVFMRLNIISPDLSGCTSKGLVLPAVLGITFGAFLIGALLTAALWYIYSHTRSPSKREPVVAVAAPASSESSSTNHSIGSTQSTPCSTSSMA
Method: Affinity of antibodies can be assessed using, for example, BIAcore analysis using standard protocols. Briefly, protein A is chemically coupled to a BIAcore CM5 chip, with the amount of protein A immobilized corresponding to 2000 RU. Subsequent steps are performed in a running buffer of 10 mM HEPES, 150 mM NaCl, 3 mM EDTA, 0.05% TWEEN, pH=7.4, at 25 degrees Celsius using a 10 Hz data collection rate. Anti-endoglin antibody (10 nM) is captured at a 10 μL/min flow rate by the immobilized protein A on the BIAcore chip: typically, capture times of 20, 40 and 80 seconds allow the capture of antibody densities corresponding to 130 RU, 330 RU and 570 RU, respectively. Start-up cycles are performed using running buffer at a flow rate of 40 μL/min, a contact time of 90 seconds and a dissociation time of 90 seconds. Sample cycles are performed using recombinant endoglin at concentrations ranging from 0 to 40 nM. Endoglin is passed over the BIAcore chip containing captured antibody at a flow rate of 40 μL/min with a contact time of 525 seconds and dissociation time of 2500 seconds. Eight sample cycles are typically performed at each antibody capture density. Regeneration of the chip is accomplished using 10 mM glycine pH=1.7. Data analysis is performed using BIAcore T100 Evaluation Software v1.1 Signals generated using BIAcore chips with different captured antibody densities are compared and data generated in the absence of recombinant endoglin are used to adjust for the intraassay blank signal. For fitting of the data, the Rmax is allowed to float to account for variation in capture levels of each antibody in each cycle. Data from each capture density is fitted simultaneously during analysis of each antibody. BIAcore data are presented in Table 2 for chimeric, humanized and deimmunized anti-endoglin antibodies, including ka (1/Ms), kd (1/s), KD (M) and Chi^2 (RU^2).

[4] = liver gene expression, mean ± SD, Normal-Vehicle 1.0

## CCCc1nc2c(C)cc(-c3nc4ccccc4n3C)cc2n1Cc1ccc(-c2ccccc2C(=O)O)cc1 [Telmisartan, telmisartan, reference compound]
[1]; Bonferroni, P<0.05
  Alpha-smooth muscle actin mRNA expression levels compared with the NASH-Vehicle group: significantly down-regulated
  Liver triglyceride contents compared with the NASH-Vehicle group: significant decreases
  Macrophage chemoattractant protein-1 mRNA expression levels compared with the NASH-Vehicle group: tended to decrease
  Mean liver weight compared with the NASH-Vehicle group: significant decrease
  Mean liver-to-body weight ratio compared with the NASH-Vehicle group: significant decreases
  NAS compared with the NASH-Vehicle group: significant decreases in NAS
  Serum alanine aminotransferase (ALT) levels compared with the NASH-Vehicle group: tended to decrease
  Sirius red-positive area compared with the NASH-Vehicle group: significant decrease
[1]; F4/80 immunostaining, macrophage marker
  F4/80-positive signals and cells in liver compared with the NASH-Vehicle group: No obvious changes
[1]; [4]
  Alpha-SMA mRNA expression: 0.7 ± 0.3
  MCP-1 mRNA expression: 1.5 ± 1.1
  TIMP-1 mRNA expression: 5.8 ± 3.7
  TNF-α mRNA expression: 3.2 ± 2.3
[1]; mean ± SD
  Liver triglyceride: 23.5 ± 10.6 mg/g liver
  Serum ALP: 444 ± 134 U/L
  Serum ALT: 29 ± 15 U/L
  Serum AST: 113 ± 32 U/L
[1]; mean ± SD, liver sections
  Sirius red-positive area: 0.67 ± 0.12%
[1]; mean ± SD, range 0-8, 10 mg/kg
  NAS (NAFLD Activity score): 3.3 ± 1.2
[1]; score 0 = No Foci
  Lobular inflammation score 0, number of mice: 3
[1]; score 0 = None
  Hepatocyte ballooning score 0, number of mice: 1
[1]; score 1 = 5-33%
  Steatosis score 1, number of mice: 9
[1]; score 1 = <2 foci/200x
  Lobular inflammation score 1, number of mice: 4
[1]; score 1 = Few balloon cells
  Hepatocyte ballooning score 1, number of mice: 3
[1]; score 2 = 2-4 foci/200x
  Lobular inflammation score 2, number of mice: 2
[1]; score 2 = Many cells/prominent ballooning
  Hepatocyte ballooning score 2, number of mice: 5

B1: VK1VH1: humanized anti-endoglin antibody (antibody, V domains shown)
VH: EVQLVESGGGLVKPGGSLRLSCAASGFTFSDAWMDWVRQAPGKGLEWVGEIRSKASNHATYYAESVKGRFTISRDDSKNTLYLQMNSLKTEDTAVYYCTRWRRFFDSWGQGTLVTVSS
VL: DIQMTQSPSSLSASVGDRVTITCRASSSVSYMHWYQQKPGKAPKPWIYATSNLASGVPSRFSGSGSGTDYTLTISSLQPEDFATYYCQQWSSNPLTFGGGTKVEIK
[2]; cohort of 20 donors, 50 μg/mL antibody
  Responding donors, % of the study cohort: 10%
[2]; donor 20
  Stimulation index (borderline response): 1.91
[2]; 50 μg/mL antibody
  Donors with positive T cell proliferation responses: 2

B2: VK1AAVH1A2: humanized/deimmunized anti-endoglin IgG1; light chain SEQ ID NO: 93 (VK1AA), heavy chain SEQ ID NO: 89 (VH1A2) (antibody, V domains shown)
VH: B1 VH with I51A
VL: B1 VL with V19A, I47A
[2]; 50 μg/mL antibody
  Donors with positive T cell proliferation responses: none of the donors in the study cohort responded positively
[3]
  ka: 46000 M⁻¹ s⁻¹
  kd: 3.25e-05 s⁻¹

B3: VK1AAVH1R: humanized/deimmunized anti-endoglin antibody (antibody, V domains shown)
VH: B1 VH with K54R
VL: B1 VL with V19A, I47A
[3]
  ka: 64000 M⁻¹ s⁻¹
  kd: 3.41e-05 s⁻¹

B4: VK1AAVH1Q: humanized/deimmunized anti-endoglin antibody (antibody, V domains shown)
VH: B1 VH with K54Q
VL: B1 VL with V19A, I47A
[3]
  ka: 35600 M⁻¹ s⁻¹
  kd: 3.03e-05 s⁻¹
